# US20060020042A1, “Memantine for the treatment of mild and mild to moderate Alzheimer's disease” (Forest Laboratories, Inc., priority 2004, published 2006)
# Legend:
# [1] = system: outpatients with mild-to-moderate Alzheimer's disease; assay: CIBIC-plus in randomized, double-blind, placebo-controlled study; type: in vivo, human; conditions: for CIBIC+ Non-Responder, number of patients / CIBIC+ Responder (ratings 1-4), number of patients / CIBIC+ Difference (memantine minus placebo, mean): Week 24, ITT; for CIBIC+ Difference (memantine minus placebo, mean): 20 mg/day
# Excerpt: The present invention is based on results from a randomized, double-blind, placebo-controlled, multi-center, parallel-group study comparing memantine to placebo in outpatients diagnosed with probable AD according to […] criteria. Severity of mild to moderate was established using the Mini-Mental State Examination (MMSE) score (≧10 and ≦22; 0 is the lowest score and 30 is the highest score). In the study of the present invention, there were approximately 400 patients enrolled across 42 centers. Evaluation of primary efficacy was achieved by Alzheimer's Disease Assessment Scale-cognitive subscale (ADAS-cog) and the Clinician's Interview-Based Impression of Change including caregiver information (CIBIC-plus). Secondary efficacy was determined using Alzheimer's disease Cooperative Study-Activities of Daily Living (ADCS-ADL) and Neuropsychiatric Inventory (NPI) criteria. The CIBIC-Plus is a global rating that was derived through an independent, comprehensive interview with the patient and caregiver by an experienced rater/clinician who was barred from knowledge of all other psychometric test scores (after Baseline visit) conducted as part of this protocol and who is not otherwise familiar with the patient. Scores 1-3 indicate improvement; Score 4 indicates no change (as compared to baseline); Scores 5-7 indicate worsening. The CIBIC rater assessed disease severity at Baseline. Using the results from Baseline for reference, the rater then interviewed the patient and caregiver at the end of Weeks 4, 8, 12, 18 and 24 (or upon early termination), to obtain an “Impression of Change” rating. The format for this scale was derived from the Alzheimer's Disease Cooperative Study-Clinician's Global Impression of Change scale (ADCS-CGIC) (Schneider, L. et al, Alzheimer Dis Assoc Disord. 1997; 11 Suppl 2:S22-32). The CIBIC-plus was administered at each clinic visit starting with the Baseline visit. A “responder” is defined as a patient for whom the change from baseline (Visit 2) to Week 24 in ADAS-cog is less than or equal to -4. […] Results were evaluated over seven clinical visits; at initial screening, baseline, and the end of weeks 4, 8, 12, 18 and 24. The population of patients who received at least one dose of double-blind memantine, and completed at least one post-baseline efficacy evaluation of either the ADAS-cog or the CIBIC-plus is designated the “intent-to-treat” (ITT) population. The population of randomized patients who received at least one dose of double-blind study medication is designated the “safety population”. The randomized population designates all patients randomized into the study. This study was conducted as a fixed-dose study. All patients assigned to the memantine group received an initial dose of 5 mg per day; the dose was titrated in 5 mg weekly increments to a final dose of 20 mg/day (administered as two 5 mg tablets twice a day). Study drug was provided as blister packs containing masked study medication such that placebo and memantine tablets were visually identical, and all patients received four tablets of study medication daily (in combinations of memantine 5 mg tablets and matching placebo tablets). Transient dose adjustments were permitted between weeks 3 and 8 for patients experiencing dose-limiting adverse events. However, all patients were required to receive the target dose of 20 mg/day by the end of week 8. Patients not able to tolerate the target dose by week 8 were discontinued from the study. The CIBIC-plus rating was analyzed using the CMH test, controlling for study center ([…]). Descriptive statistics were calculated by visit.
# [2] = cited from earlier work
# [3] = system: outpatients with mild-to-moderate Alzheimer's disease; assay: NPI in randomized, double-blind, placebo-controlled study; type: in vivo, human; conditions: for NPI total Difference (memantine minus placebo, LS mean): Week 24, ITT, 20 mg/day
# Protocol: In the study of the present invention, there were approximately 400 patients enrolled across 42 centers. Evaluation of primary efficacy was achieved by Alzheimer's Disease Assessment Scale-cognitive subscale (ADAS-cog) and the Clinician's Interview-Based Impression of Change including caregiver information (CIBIC-plus). Secondary efficacy was determined using Alzheimer's disease Cooperative Study-Activities of Daily Living (ADCS-ADL) and Neuropsychiatric Inventory (NPI) criteria. The NPI is a validated scale that assesses behavioral disturbances in patients with dementia (Cummings et al., Neurology. 1994; 44(12):2308-14). It provides both a total score (sum of 12 domain scores) as well as scores for each subscales (e.g., delusions, hallucinations, agitation/aggression, depression/dysphoria, anxiety, disinhibition, elation/euphoria, apathy/indifference, irritability/lability, aberrant motor activity). For each subscale, both the frequency and the severity of each behavior is measured. The NPI total score ranges from 0 (higher functioning status) to 144 (lower functioning status). The NPI is based upon responses from the caregiver. The NPI was administered at Baseline and the end of Weeks 12 and 24 (or upon early termination). The study consisted of 1-2 weeks of single-blind placebo treatment followed by 24 weeks of double-blind treatment. Results were evaluated over seven clinical visits; at initial screening, baseline, and the end of weeks 4, 8, 12, 18 and 24. This study was conducted as a fixed-dose study. All patients assigned to the memantine group received an initial dose of 5 mg per day; the dose was titrated in 5 mg weekly increments to a final dose of 20 mg/day (administered as two 5 mg tablets twice a day). Study drug was provided as blister packs containing masked study medication such that placebo and memantine tablets were visually identical, and all patients received four tablets of study medication daily (in combinations of memantine 5 mg tablets and matching placebo tablets). […] Descriptive statistics were calculated by visit. […]
# [4] = system: NMDA receptor; conditions: uncompetitive antagonist; cited from earlier work
# [5] = LOCF, ITT, of 196 patients randomized to memantine
compound,measurement,setting,value
"CC12CC3CC(C)(C1)CC(N)(C3)C2 [Memantine, 1-amino-3,5-dimethyladamantane]","CIBIC-plus marked improvement, number of patients",[1]; [5],9 patients
same,"CIBIC-plus marked worsening, number of patients",[1]; [5],1 patients
same,"CIBIC-plus moderate improvement, number of patients",[1]; [5],27 patients
same,"CIBIC-plus moderate worsening, number of patients",[1]; [5],18 patients
same,"CIBIC-plus marked worsening, number of patients",[1]; OC analysis,1 patients
same,"CIBIC-plus minimal improvement, number of patients",[1]; OC analysis,24 patients
same,"CIBIC-plus moderate improvement, number of patients",[1]; OC analysis,8 patients
same,"CIBIC-plus moderate worsening, number of patients",[1]; OC analysis,17 patients
same,"CIBIC+ Non-Responder, number of patients",[1]; LOCF analysis,64 patients
same,"CIBIC+ Responder (ratings 1-4), number of patients",[1]; LOCF analysis,132 patients
same,"CIBIC+ Difference (memantine minus placebo, mean)","[1]; LOCF analysis, p=0.004",−0.32
same,"CIBIC+ Non-Responder, number of patients","[1]; LOCF analysis, listed as Mem",97/64 patients
same,"CIBIC+ Responder (ratings 1-4), number of patients","[1]; LOCF analysis, listed as Mem",100/132 patients
same,"CIBIC+ Non-Responder, number of patients",[1]; OC analysis,56 patients
same,"CIBIC+ Responder (ratings 1-4), number of patients",[1]; OC analysis,108 patients
same,"CIBIC+ Difference (memantine minus placebo, mean)","[1]; OC analysis, p=0.030",−0.26
same,"CIBIC+ Non-Responder, number of patients","[1]; OC analysis, listed as Mem",81/56 patients
same,"CIBIC+ Responder (ratings 1-4), number of patients","[1]; OC analysis, listed as Mem",85/108 patients
same,"CIBIC-plus, memantine-treated group compared with placebo","[1]; by week 12, LOCF and OC",statistically significant improvement
same,solubility in aqueous media,[2],highly soluble
same,individual NPI criteria significantly better than in the placebo-treated group,"[3]; LOCF, week 24",three
same,"NPI total Difference (memantine minus placebo, LS mean)","[3]; LOCF analysis, p=0.011",−3.5
same,"NPI total Difference (memantine minus placebo, LS mean)","[3]; OC analysis, p=0.143",−2.1
same,affinity for the NMDA receptor,[4],moderate affinity
